Patent EP4715056A1, “BIO-BASED TRANS-ACONITATE, PREPARATION METHOD THEREFOR AND USE THEREOF” (Qingdao Institute of Bioenergy and Bioprocess Technology, …, priority 2023, dated 2024)
Structures can show the parent of a compound that is named as a salt. Where two headings read alike, the source gives them in different places. One block for each compound: values may come before it.

Key:
[1] = system: Aspergillus terreus engineered strains; format: cell-based; conditions: for effect on the yield of trans-Aconitic acid: additionally added at certain doses, shake flask; for increase of the yield of trans-Aconitic acid: 96 hours of shake flask fermentation
Procedure: Additional supplementation experiments were performed on differential amino acids and vitamins between high-yield and low-yield corn steep liquor powders. Based on the high-yield corn steep liquor powder medium, fermentation verification was performed by adding differential amino acid components and vitamin components separately. Each group was set up with three parallel replicates. After 96 hours of shake flask fermentation, the supernatant of the fermentation broth was collected for quantitative analysis using HPLC detection.

[2] = Volatility loss rate (activated carbon method, HG/T 4458-2012); format: physicochemical; conditions: PVC composite with 30 parts plasticizer; 70°C for 24 h
Procedure: (§1) The above plasticizer is the mixed aconitates prepared in Example 37, and composite materials are prepared according to the above weight ratio and preparation method respectively. At the same time, dioctyl phthalate, tributyl citrate, tributyl aconitate and triisooctyl aconitate are respectively selected as plasticizers to prepare composite materials according to the above weight ratio and preparation method. The test method is the same as that in Test 2 except for the following: • 1. Volatility loss rate: tests were performed in accordance with HG/T 4458-2012 Plastics - Determination of Plasticizer Loss by Activated Carbon Method at a test temperature of 70°C for 24 h. • 2. Water extraction rate: tests were performed in accordance with the standard ISO 175-2011 Test Method for Determination of Immersion Effects of Plastics in Liquid Chemicals at room temperature for 72 h, with deionized water as the extraction solvent. • 3. Ethanol extraction rate: tests were performed in accordance with the standard ISO 175-2011 Test Method for Determination of Immersion Effects of Plastics in Liquid Chemicals at room temperature for 72 h, with ethanol as the extraction solvent. • 4. Petroleum ether extraction rate: tests were performed in accordance with the standard ISO 175-2011 Test Method for Determination of Immersion Effects of Plastics in Liquid Chemicals at room temperature for 72 h, with petroleum ether as the extraction solvent. • 5. Migration rate: tests were performed in accordance with HG/T 4458-2012 Determination of Plasticizer Migration in Plastics at a test temperature of 50°C for 48 h. The materials of absorbent sheets are polyethylene (PE) without additives and standard natural rubber (NR).

[3] = Compatibility (water value method); format: physicochemical; conditions: water value of the plasticizer, Table 9
Procedure: (§2) The aconitates and tributyl citrate prepared in the above examples and comparative examples were added as plasticizers to PVC resin to obtain PVC plastics. The PVC plastics include 100 parts of PVC resin, 35 parts of plasticizer, 2 parts of oxidized polyethylene wax, and 5 parts of octyltin maleate. The above raw materials were mixed and prepared using the same mixing process to obtain finished PVC products. The performance tests were performed on different plasticizers and the obtained PVC finished products in the above examples and comparative examples. […] Three points were selected for each group of samples, each point was tested once, and a median value was taken. • 2. […] Compatibility: tests were performed using a water value method. Since water molecules are polar, the compatibility between the plasticizer and water can characterize the compatibility between the plasticizer and polar materials (PVC, PLA, and nitrile rubber). When a certain plasticizer has good compatibility with water, it has good compatibility with PVC, and vice versa. In the experiment, 2.5 g of plasticizer and 25 g of acetone were added to a beaker, titrated with a burette filled with deionized water, and agitated while titrating until turbidity appears, and the volume of deionized water consumed was recorded. • 4. Glass transition temperature (Tg): the glass transition temperature was tested using a dynamic mechanical analyzer. Test conditions: nitrogen was taken as the carrier gas, at a test temperature range of -40 to 80°C, a heating rate of 3°C/min, and a frequency of 1 Hz.

[4] = Ethanol extraction rate (ISO 175-2011); format: physicochemical; conditions: PVC composite with 30 parts plasticizer, room temperature, 72 h
Procedure: as §1

[5] = Plasticizer migration rate to NR (HG/T 4458-2012); format: physicochemical; conditions: PVC composite with 30 parts plasticizer; 50°C for 48 h
Procedure: as §1

[6] = Petroleum ether extraction rate (ISO 175-2011); format: physicochemical; conditions: PVC composite with 30 parts plasticizer, room temperature, 72 h
Procedure: as §1

[7] = Hardness (Shore hardness tester, GB/T 531-2008); format: physicochemical; conditions: composite: 100 parts PVC resin (K value 60, polydispersity index 4), 30 parts plasticizer, 2 parts oxidized polyethylene wax, 5 parts octyltin maleate
Procedure: as §2, with “The PVC plastics include 100 parts of PVC resin, 35 parts of plasticizer, 2 parts of oxidized polyethylene wax, and 5 parts of octyltin maleate.” left out

[8] = Glass transition temperature (dynamic mechanical analyzer); format: physicochemical; conditions: PVC composite with 30 parts plasticizer, Table 10
[9] = Water extraction rate (ISO 175-2011); format: physicochemical; conditions: PVC composite with 30 parts plasticizer; room temperature, 72 h, deionized water
Procedure: as §1

[10] = Tensile properties (GB/T 1040-2006): tensile modulus at 100%, elongation at break, elastic modulus; format: physicochemical; conditions: PVC composite with 30 parts plasticizer, Table 9
[11] = Plasticizer migration rate to PE (HG/T 4458-2012); format: physicochemical; conditions: PVC composite with 30 parts plasticizer; 50°C for 48 h
Procedure: as §1

[12] = system: Aspergillus terreus engineered strains; format: cell-based; conditions: 30 L fermenter
Procedure: Meanwhile, the medium without added amino acids was used as a control to compare the fermentation yields. […] The primary and secondary seed media were: 150 g/L glucose monohydrate, 4 g/L ammonium sulfate, 2 g/L corn steep liquor powder, 0.4 g/L magnesium sulfate heptahydrate, 0.06 g/L ferrous sulfate heptahydrate, 0.01 g/L diammonium hydrogen phosphate, 40 mg/L zinc sulfate, 40 mg/L copper sulfate, and 0.5 g/L sodium chloride; no L-Trp or L-Met was added to the primary and secondary media. The tertiary fermentation medium was the same as the secondary seed medium, but L-Trp or L-Met was added. The control parameters of the 30 L fermenter were as follows: 300 to 480 rpm, dissolved oxygen (DO) level maintained at 25% to 29%, aeration rate at 20 L/min; DO control was linked during agitation. The control parameters of the 100 L fermenter were as follows: 250 to 280 rpm, DO controlled from 25 to 30% during agitation linkage, and aeration rate controlled f […].

[13] = system: Aspergillus niger engineered strains; conditions: 30 L fermenter, after 132 h of fermentation
Procedure: Fermentation was performed in a 30 L fermenter using the medium added with L-methionine. The control parameters were as follows: 300 to 480 rpm, DO level maintained at 25 to 29%, and aeration rate controlled at 20 L/min.

[14] = system: Aspergillus niger engineered strains; conditions: shake flask, addition amount 0.12 g/L
Procedure: Nutritional factor optimization experiments were performed on the trans-Aconitic acid-producing Aspergillus niger engineered strains constructed in Example 1. Amino acid components were added for fermentation verification using the high-yield corn steep liquor powder medium as the basis.

Compound: NCC(=O)O [L-glycine]
effect on the yield of trans-Aconitic acid [1]: varying degrees of decrease

Compound: CCCCOC(=O)C=C(CC(=O)OCCCC)C(=O)OCCCC [Tributyl aconitate, tributyl aconitate]
Volatility loss rate [2]: 1.08% | Compatibility [3]: 16.7 mL | Ethanol extraction rate [4]: 3.71% | Migration rate to NR [5]: 1.31% | Petroleum ether extraction rate [6]: 6.03% | Hardness/Shore D [7]: 45 Shore D | Tg [8]: 28.1 °C | Water extraction rate [9]: 0.36% | Elastic modulus [10]: 130.5 MPa | Elongation at break [10]: 257.4% | Tensile modulus at 100% [10]: 8.2 MPa | Migration rate to PE [11]: 1.26%

Compound: O=C(O)CCCC[C@@H]1SC[C@@H]2NC(=O)N[C@@H]21 [biotin-vitamin B7, biotin]
increase of the yield of trans-Aconitic acid ([1]; addition of 0.11 g/L): 17.5%

Volatility loss rate [2]: 0.38% | Compatibility [3]: 10.9 mL | Ethanol extraction rate [4]: 14.52% | Migration rate to NR [5]: 0.18% | Petroleum ether extraction rate [6]: 16.44% | Hardness/Shore D [7]: 71 Shore D | Tg [8]: 43.5 °C | Water extraction rate [9]: 0.14% | Elastic modulus [10]: 397.1 MPa | Elongation at break [10]: 156.3% | Tensile modulus at 100% [10]: 16.1 MPa | Migration rate to PE [11]: 0.13%
Compound: CC(C)CCCCCOC(=O)C=C(CC(=O)OCCCCCC(C)C)C(=O)OCCCCCC(C)C [Triisooctyl aconitate, triisooctyl aconitate]

Compound: CSCC[C@H](N)C(=O)O [L-methionine]
final fermentation yield of trans-Aconitic acid ([12]; 0.115 g/L added (26 g/L without adding amino acid)): 65 g/L | increase of the yield of trans-Aconitic acid ([1]; addition of 0.115 g/L): 86.5% | TAA yield [13]: 60 g/L | yield of the recombinant engineered strains [14]: 31.76 g/L

Compound: NCCCC[C@H](N)C(=O)O [L-lysine]
effect on the yield of trans-Aconitic acid [1]: varying degrees of decrease

Compound: N[C@@H](Cc1c[nH]c2ccccc12)C(=O)O [L-tryptophan]
yield of trans-Aconitic acid ([12]; 0.099 g/L added, at 60 h (26 g/L without adding amino acid)): 41.95 g/L | increase of the yield of trans-Aconitic acid ([1]; addition of 0.099 g/L): 46.2% | increase of the yield of trans-Aconitic acid ([1]; addition of 0.2 g/L): 20.7%

Volatility loss rate [2]: 3.87% | Compatibility [3]: 14.3 mL | Ethanol extraction rate [4]: 4.96% | Migration rate to NR [5]: 2.71% | Petroleum ether extraction rate [6]: 8.91% | Hardness/Shore D [7]: 77 Shore D | Tg [8]: 38.3 °C | Water extraction rate [9]: 1.16% | Elastic modulus [10]: 426.5 MPa | Elongation at break [10]: 146.3% | Tensile modulus at 100% [10]: 13.6 MPa | Migration rate to PE [11]: 2.12%
Compound: CCCCOC(=O)CC(O)(CC(=O)OCCCC)C(=O)OCCCC [Tributyl citrate, tributyl citrate]

Compound: CCCCCCCCOC(=O)c1ccccc1C(=O)OCCCCCCCC [Dioctyl Phthalate, dioctyl phthalate]
Volatility loss rate [2]: 0.96% | Compatibility [3]: 7.1 mL | Ethanol extraction rate [4]: 5.13% | Migration rate to NR [5]: 0.81% | Petroleum ether extraction rate [6]: 6.12% | Hardness/Shore D [7]: 78 Shore D | Tg [8]: 48.5 °C | Water extraction rate [9]: 0.32% | Elastic modulus [10]: 487.3 MPa | Elongation at break [10]: 134.9% | Tensile modulus at 100% [10]: 15.1 MPa | Migration rate to PE [11]: 0.83%

Compound: CC(C)C[C@H](N)C(=O)O [L-leucine]
increase of the yield of trans-Aconitic acid ([1]; addition of 0.125 g/L): 42%

Compound: O=C(O)[C@@H]1CCCN1 [L-proline]
effect on the yield of trans-Aconitic acid [1]: varying degrees of decrease

Compound: CC(O)C(=O)O (stereo not drawn) [lactic acid]
effect on the yield of trans-Aconitic acid [1]: varying degrees of decrease

Compound: NC(=O)CC[C@H](N)C(=O)O [L-glutamine]
effect on the yield of trans-Aconitic acid [1]: varying degrees of decrease

Compound: CC[C@H](C)[C@H](N)C(=O)O [L-isoleucine]
effect on the yield of trans-Aconitic acid [1]: varying degrees of decrease
